Measurements from patent publication US4461775A, “Hydroxythioether fatty acid derivatives” (McNeilab, Inc., priority 1982, dated 1984).

How the values were obtained:
[1] = tested on: guinea pig ileum (SRS-A induced contraction); assay: guinea pig ileum: prevention of the contraction of guinea pig ileum caused by SRS-A; assay type: cell-based; details: Cavia porcellus; SRS-A induced contraction of isolated guinea pig ileum; atropine and chlorpheniramine (1×10^-5 M) present; read-out: G.P. Ileum IC50
Description: The tissue is exposed to 5 mg/ml histamine at 1-3 minute intervals until a reproducible response is obtained. Atropine (1×10^-5 M) and chlorpheniramine (1×10^-5 M) are added followed by 1-2 biological units of SRS-A. After washing the tissue, the response to BaCl2 (1×10^-3 M) was also noted.

[2] = tested on: guinea pig parenchymal strip (immunological release of SRS-A); assay: guinea pig parenchymal strip: prevention of the contraction of guinea pig parenchymal tissue by immunological release of SRS-A; assay type: cell-based; details: Cavia porcellus; egg albumin challenge of sensitized guinea pig lung strip; chlorpheniramine (10^-4 M), indomethacin (10^-5 M), test compound 30 minutes prior
Description: The guinea pigs were sacrificed and lungs removed. Strips of subpleural parenchyma were prepared from the left and right diaphragmatic lobes and suspended in a tissue bath under 1 g of tension. After a one hour equilibration period, a dose response to histamine (10^-7 to 10^-4 M) induced contractions was performed to determine maximal contraction. The tissues were then washed and allowed to relax to baseline. Chlorpheniramine (10^-4 M), indomethacin (10^-5 M) and test compound were added 30 minutes prior to challenge with egg albumin. The response to antigen was measured in milligrams of tension.

In the case of `CCCCCCCCCCCC(O)C(CCCCC(=O)OC)SC[C@H](N)C(=O)OC` (stereo partly drawn) [Example 3, Threo S-(6-Hydroxy-1-methoxycarbonyl-5-heptadecyl)-L-cysteine Methyl Ester], the IC50 [1] is reported as 1.3 µM and the IC50 [2] is reported as > 100 µM.

`CCCCCCCCCCC[C@H](O)[C@@H](CCCCC(=O)OC)SCCC(=O)OC` (relative stereo) [Example 4, Erythro Methyl 7-Hydroxy-6-{[2-(methoxycarbonyl)ethyl]-thio}octadecanoate] showed an IC50 [2] of 10 µM.

With `CCCCCCCCCCC[C@H](O)[C@H](CCCCC(=O)O)SCCC(=O)O` (relative stereo) [Example 2, Threo 6-(2-Carboxyethyl)thio-7-hydroxyoctadecanoic Acid] the IC50 [1] was 0.24 µM and the IC50 [2] was 80 µM.

`CCCCCCCCCCC[C@H](O)[C@H](CCCCC(=O)OC)SCCC(=O)OC` (relative stereo) [Example 1, Threo Methyl 7-Hydroxy-6{[2-(methoxycarbonyl)ethyl]thio}octadecanoate] was tested, and the IC50 [1] was 1 µM and the IC50 [2] was > 100 µM.
